Series [1] can be described thus: Leakage of drug from patch edges. It counts as physicochemical. Conditions: within 10 minutes. From the text: In a regular patch without the microspheres structure, when the patch is cut into smaller pieces, drug in the reservoir layer easily leaks from along the breaking edges. In the presence of the microspheres structure, the breakpoint usually occurs between mircrospheres, which make it difficult for the drug to penetrate through the backing layer. So, with the help of microspheres structure, the leakage of drug from the patch can be substantially controlled. Though drug could leak from those microspheres along the edge, where their coating would possibly be broken, for microspheres located away from the edge no leakage can be seen. In a quantitative measurement, within 10 minutes, 60% of sulforhodamine B was lost from the edges in patch.without microspheres structure, while only 10% leaked in the presence of this microspheres structure.

Series [2] is classed as in vitro ADME, rat. On the procedure:
The experiment was performed in an in vitro perfusion device.
Patches (2 mm×2 mm) were put into intestine lumen (3 cm in length). One end of the lumen was connected to an infusion inlet, while the other end was connected to a receiving tube. Phosphate buffer solution (PBS) was infused in a constant rate (0.05 ml/min) into the lumen. The entire device was placed on a magnetic stirrer panel, and samples were taken from PBS outside the lumen at predetermined time interval. […] This perfusion system mimics in-vivo intestine fluid movement.
Bioavailability of drug transport from these patches was calculated. Bioavailability refers to the ratio of the amount of drug transported across the intestine to the total amount of drug released at the site of absorption.

Series [3] is described as follows: Unidirectional release of drug from compressed patches in diffusion cell (PBS). It counts as physicochemical. On the procedure:
(2) Unidirectional Release of Drug from Compressed Patches: Release of a model drug (Sulforhodamine B) from patches was measured in vitro into phosphate buffered saline (PBS, pH 7.4, 0.01 M). To distinguish drug release from the mucoadhesive side and the backing side of the patch, the patches were placed in a custom-designed diffusion cell. The cell comprised two chambers placed side-by-side with an opening provided between the chambers of about 3.14 mm^2. A patch (4 mm in diameter) was placed between the two chambers and each chamber was filled with 6 ml PBS. Vacuum grease was used to seal the joint to avoid leakage of PBS. Amount of sulforhodamine B released from either side of the patch into the solution was quantified at 565 nm using a spectrophotometer (UV-1601, Shimadzu Corporation).
To assess whether unidirectionality of release is also observed when the patch is placed on the intestine, the following experiments were performed. A section of pig intestine was placed on a diffusion cell such that the mucosal side faced the upper (donor) chamber. The donor chamber was filled with 2 ml PBS. Under these conditions, the thickness of the PBS layer on the intestine was about […]. A sulforhodamine-containing patch (4 mm in diameter) was prepared using methods described above was gently placed on the intestine. A stirring bar was placed on a mesh, which was placed about 1 cm above the patch. The receiver chamber was filled with 12 ml PBS. A stirring bar was placed in the receiver chamber. The cell was placed on a magnetic stirrer and stirred at 400 rpm for 120 minutes. Amount of sulforhodamine B released into donor and receiver chambers was measured using the same spectrophotometer described above. Percentages of sulforhodamine B delivered into the receiver and donor chambers were calculated (Figure 12). By measuring the total amount of sulforhodamine B released from the patch, the percent of sulforhodamine B delivered into the intestine was also calculated.

Series [4] has as its system non-diabetic rats. In words: Intestinal delivery of insulin patches in non-diabetic rats (blood glucose). It is filed as in vivo, Sprague Dawley (SD) rats. Conditions: 10 IU/kg in the intestine. On the procedure:
Intestinal delivery of insulin patches in non-diabetic rats: All animal experiments were4conducted under aseptic conditions using institutionally approved protocols. Male Sprague Dawley (SD) rats, weighing 350-450 g fasted for 16 hours were anesthetized using gas anesthesia (1.25-4% isofluorane in oxygen). Rat intestine was exposed through a midline abdominal incision (2.0 cm). A small longitudinal incision (5 mm) was made about 5 cm from the proximal end of the small intestine. Patches (3-6 pieces, 2 mm in diameter) containing insulin (0.4-1.2 IU/patch, totally 5 IU/kg or 10 Iu/kg per rat) were randomly inserted through the opening into the lumen. The incisions were then sealed by surgical tissue (NEXABAND®, Veterinary Products Laboratories, Phoenix, Ariz.). […] Blood glucose level was measured using a glucometer (Excite® XL, Bayer Corporation, Elkhart, Ind.). […] The areas above the glucose curve (AAC) were calculated by the trapezoidal method (Carino G P, Jacob J S, Mathiowitz E. 2000. Nanosphere based oral insulin delivery. J Controlled Release 65:261-269). The apparent relative pharmacological bioavailability of insulin from non-diabetic rats was calculated by comparing the AAC following intestinal administration under different doses with that following subcutaneous administration.

With `CCN(CC)c1ccc2c(-c3ccc(S(=O)(=O)O)cc3S(=O)(=O)[O-])c3ccc(=[N+](CC)CC)cc-3oc2c1` [sulforhodamine B], the “sulforhodamine B leaked from the edges” value in series [1] (patch in the presence of microspheres structure) is reported as 10%. In addition, in series [1] (patch without microspheres structure), the “sulforhodamine B lost from the edges” value was found to be 60%. Further, the “fraction transported across rat intestine from patches compared to solution form” value in series [2] was “higher fraction”. For the same compound, in series [3], the “difference in release profile when different compression pressures were used during patch preparation” value was “no significant difference”. Moreover, in series [3] (120 minutes, PBS pH 7.4), the “drug released from the backing side of the patch” value is recorded as “less than 0.3%” and the “drug released from the mucoadhesive side of the patch” value is “about 10%”. Besides, the “share of released drug that was released from the mucoadhesive side” value in series [3] (compressed patch) is “more than 97%”.
“insulin solution: bovine insulin solution (pH 7), negative control administered in the intestine at 10 IU/kg”: the “hypoglycemia after administration in the intestine” value in series [4] is recorded as “did not produce detectable hypoglycemia”.

The values are drawn from US20030017195A1, “Method for oral drug delivery” (priority 2001, published 2003).
